“And” between values parts separate entries of the source, which are not always exact repeats. Identical values can stand only once.
Legend:
[1] = cynomolgus monkey, in vivo
[2] = test system: 47 safety-related targets
[3] = test system: SARS-CoV-2 Delta strain (B.1.617.2); experiment: microbe, parasite or virus in culture; details: Severe acute respiratory syndrome coronavirus 2, Vero C1008
[4] = test system: SARS-CoV-2 Omicron strain (B.1.1.529); experiment: microbe, parasite or virus in culture; details: Severe acute respiratory syndrome coronavirus 2, Vero C1008
SARS-CoV-2 Delta strain = details: mouse, in vivo

## CC(C)(C)C(NC(=O)C(F)(F)F)C(=O)N1CC2(CC1C(=O)NC(C#N)CC1CCNC1=O)SCCS2 (stereo not shown) [Compound of formula (I)]
[1]
  arrhythmia: no test sample-related arrhythmia was observed
  cardiovascular system changes: no test sample-related cardiovascular system changes were observed
  changes in ECG parameters or blood pressure: no test sample-related changes in ECG parameters or blood pressure were observed
[2]
  EC50: > 100000 nM
[3]
  IC50: 40 nM
[4]
  IC50: 120 nM
SARS-CoV-2 Delta strain
  Brain tissue (log10 copies/mg) Day 2: 1.04±0.24 log10 copies/mg and 0.77±0.20 log10 copies/mg
  body weight: not significantly reduced
  effect on viral titer in the lungs: sustained inhibitory effect
  histopathological analysis of the lungs: significantly ameliorated lung damage
  reduction of viral copy number in the lungs: 2.4 log10 copies/g
  reduction of viral titer in the lungs (plaque assay): more than 3 log10 PFU/g
  viral titer in the lungs (plaque assay): the titer was not detected
  virus titer in the brains: no virus titer was detected
Human plasma protein
  Free rate (F%) Replicate 1: 48.71%
  Free rate (F%) Replicate 2: 44.55%

From patent publication EP4653450A1 (priority 2023, dated 2024)
